We go through one molecule from US20090275667A1, “USE OF ALLICIN AS PRESERVATIVE, AS DISINFECTANT, AS ANTIMICROBIAL OR AS BIOCIDAL AGENT” (Stone Island Holdings Ltd, priority 2003, published 2009).

For orientation: zone of inhibition means the extent of the growth-free halo in a diffusion test. The low end stands for little suppression of growth, the high end for wide suppression of growth. Usually MIC stands for the lowest concentration that inhibits growth of the organism. Read a low MIC as inhibition by little substance.

In brackets after ≈: the same amount, converted by molar mass.

In one assay the test system is E. coli. The assay is described as follows: Zones of Inhibition against common chicken bacteria. The conditions noted are these: Escherichia coli. Type of assay: cell-based.
The next assay relates to Staph. Aureus. The description is as above. In kind it is cell-based. The conditions noted are these: Staphylococcus aureus.
In the next assay the test system is Bordetella. The assay is described as above. In kind it is cell-based.
The subject of assay [1] is E. coli and Salmonella growth. The assay is described as follows: Preservation of hamburger meat samples against bacterial growth. Type of assay: cell-based. The conditions noted are these: for time bacterial overgrowth prevented: 10 kg hamburger meat. From the text:
A range of concentrations of liquid allicin (0 ppm to 500 ppm) was applied to 10 kg samples of hamburger meat to determine how long bacterial growth could be prevented. These tests were compared to the normal use of existing preservatives (including nitrates and phosphates).
To test for bacterial growth, small samples of meat were cut from the test piece of meat and, using standard methods of analysis, were checked for E. coli and Salmonella growth.

The subject of assay [2] is Paenibacillus larvae subsp. larvae. The assay is described as follows: MIC by broth microdilution, bee pathogens. Type of assay: cell-based. Particulars: range 1000 ppm to 0.25 ppm. The text has this:
(§1) We tested allicia (Allisure™ Liquid) activity against several species of entomopathogenic bacteria (Paenibacillus larvae subsp. larvae, Paenibacillus larvae subsp. pulvifaciens) and fungi (Ascosphaera apis and Ascosphaera aggregata) using broth microdilution method to determine minimum inhibitory concentration (MIC) and the agar diffusion test (Kirby-Bauer) to determine zone of inhibition. Bacterial spores were isolated from the diseased honey bee larval samples. A small aliquot of heat-treated bacterial spores was suspended in 100 μl of phosphate buffered saline-pH 7.2 (PBS) and plated on semi-selective J. Agar medium, containing Nalidixic and Pipemidic acid (Alippi, A M (1995) Detection of Bacillus larvae spores in Argentinian honeys by using a semi-selective medium. Microbiologia 1995 11(3): 343-50; and Govan, V A; Allsopp, M H; Davison, S A (1999) PCR Detection Method for Rapid Identification of Paenibacillus larvae. Applied and Environmental Microbiology 65(5): 2243-2245.
(§2) The plates were incubated at 33° C. in air containing 6% CO2 and 95% RH. The initial species identification was based on morphological, biological and cultural characteristics. The bacterial culture was tested for a catalase reaction (Leboffe, M. J and Pierce, B e (1999) A photographic atlas for the microbiology laboratory. Morton Publishing Company. 254 pp). The bacterial colonies were characterized by shape, margins and color. Gram-positive stained smears (Gram-stain Reagents Kit, EMD Chemicals Inc., NJ) were examined for morphological identification of vegetative cells and spores.
(§3) DNA based PCR identification was performed to corroborate identification of the bacterial species. Bacterial cells from culture plates were added directly to 30 μl of PCR reaction. The PCR primers used in the reaction were based on the 16S RNA sequence to selectively amplify a fragment of 973 by unique to P. larvae (Govan et al., 1999). The PCR products were visualized by 0.8% agarose gel electrophoresis in TAE buffer and ethidium bromide staining. The reference strains of bacteria were used as a control in PCR reactions and were provided by the National Center for Agricultural Research, Peoria, Ill. P. l. larvae (NRRL B-3560, B-2605) and P. l. palvifaciens (NRRL B-3688, B-3685, B-3689, NRS-1687, P. alvei B383).
(§4) Positive controls contained the antibiotic Tylosin (Tylan® 50, Elanco Animal Health Inc., IN) and negative controls contained no antibiotics. […] The optical densities of cultures (OD 600) were recorded 24 h and 48 h post inoculation, depending on the growth rate of the microbial species. […] Minimum bactericidal concentration values (NBC) were determined for allicin by plating out 100 μl of bacterial cultures derived from the MIC assay. […]

The test system of assay [3] is Paenibacillus larvae subsp. pulvifaciens. Kind of assay: MIC by broth microdilution, bee pathogens. In kind it is cell-based. Particulars: range 1000 ppm to 0.25 ppm.
Excerpt: as §1, §2, §3, §4

The next assay relates to P. l. pulvifaciens. Kind of assay: Minimum bactericidal concentration by plating out MIC cultures. In kind it is cell-based, Paenibacillus larvae subsp. pulvifaciens. Particulars: range of 1000 ppm to 25 ppm. As for the experimental part:
Positive controls contained the antibiotic Tylosin (Tylan® 50, Elanco Animal Health Inc., IN) and negative controls contained no antibiotics. Bacterial (P. l. larvae, P. l. pulviphaciens) or fungal (A. apis, A. aggregata) spores (100 μl of approximately 10^8-10^9 spores/ml) were added to a 2.5 ml of bacterial or fungal liquid medium containing serial dilutions of allicin. Cultures were incubated in a shaker at 35° C. and 215 rpm. The optical densities of cultures (OD 600) were recorded 24 h and 48 h post inoculation, depending on the growth rate of the microbial species. […] Minimum bactericidal concentration values (NBC) were determined for allicin by plating out 100 μl of bacterial cultures derived from the MIC assay. Plates were incubated 24 h and 48 h at 33° C. and 6% CO2 to observe microbial growth.

For a further assay, the system named is M. plutonius. The assay is described as follows: Investigation into bacteriostatic or bactericidal effects (Study 2). In kind it is cell-based, Melissococcus plutonius. The conditions noted are these: conclusion from subculture after exposure. As for the experimental part:
(§5) Where there was no growth in a replicate, at the end of one week the culture was plated out for single colonies on the appropriate agar. This was to determine whether the test item had bactericidal activity, where all the bacterial cells are killed, or bacteriostatic action, where the cells are unable to replicate in the presence of the substance, but will grow when it is removed. A further test, where 0.5 ml of the broth was transferred into 4.5 ml fresh broth (giving a 1:10 dilution) was also undertaken. There would still be some Allicin in the broth, but it should be present at a low enough concentration for growth not to be affected. Where growth occurred in the absence of Allicin, the broth was examined microscopically and plated out for single colonies to confirm the identity of the bacterium.

The test system of the next assay is B. laterosporus. The assay is described as above. Type of assay: cell-based, Brevibacillus laterosporus. The conditions noted are these: conclusion from subculture into fresh media. As for the experimental part: as §5
The subject of assay [4] is GISA strain isolated from the UK mortality. The assay is described as follows: Standard agar diffusion test against a GISA strain. In kind it is cell-based, Staphylococcus aureus. The text has this: Allicin in a liquid form has been tested against the GISA strain isolated from the UK mortality. In a standard agar diffusion test the strain produced a zone of 37 mm at 500 ppm (FIG. 2) and 30 mm at 300 ppm.
A general note: Agar diffusion results depend on both activity and mobility in agar.

In assay [5] the test system is E. coli, Listeria, E. faecalis and other bacteria associated with animal diseases. The conditions noted are these: laboratory tests of earlier application WO03/024437; cited from earlier work.

For the molecule `C=CCS[S+]([O-])CC=C` (stereo not shown) [allicin, Allicin], the zone of inhibition at 166 ppm is 0 mm with E. coli (166 ppm (1:6 dilution)), 0 mm in the assay on Staph. Aureus (166 ppm (1:6 dilution)) and 18 mm in the assay with Bordetella (166 ppm (1:6 dilution)). Further, the zone of inhibition at 1000 ppm in the assay with E. coli (1000 ppm) came to 17 mm; in the assay with Staph. Aureus (1000 ppm), 32 mm; with Bordetella (1000 ppm) it was 36 mm. Also, the entries for the “time bacterial overgrowth prevented” value in assay [1] (250 ppm), in [1] (375 ppm) and in assay [1] (500 ppm) were “up to 7 days”, “up to 10 days” and “up to 14 days”, respectively. In assay [1] (meat, equivalent to 0.0250% w/v), the “allicin concentration demonstrating prevention of growth of E. coli and Salmonella” value turned out to be 250 ppm. In addition, the MIC in [2] and in [3] was 350 µg/mL (≈ 2160 µM) in each case. The “bacteriostatic or bactericidal activity” value in the assay with P. l. pulvifaciens was “only bacteriostatic (no bactericidal) activity”. Besides, the “bacteriostatic or bactericidal effect” value in the assay on M. plutonius was “bacteriostatic rather than bactericidal effects”; in the assay on B. laterosporus it was “did not kill all bacteria”. This molecule registered a zone of inhibition at 300 ppm in assay [4] (Staphylococcus aureus, 300 ppm, allicin in a liquid form) of 30 mm. For the same molecule, the zone of inhibition at 500 ppm in assay [4] (Staphylococcus aureus, 500 ppm, allicin in a liquid form) turned out to be 37 mm. Moreover, the “susceptibility of the GISA strain” value in assay [4] (recommended doses for topical use) is listed as “fully susceptible”. Besides, in assay [5], the “concentration at which allicin can kill the bacteria” value is “up to 500 ppm”.
